Experimental data from article PMC11645656, “MRGPRX4 mediates phospho-drug associated pruritus in a humanized mouse model” (Science translational medicine, 2024).
Where “and” joins values, the source holds several entries; their conditions need not be identical. Equal values may be shown once. *1 amine or outer side, *2 acyl side, *3 side chain or, on linkers, in order; H or OH if unused. Where a SMILES comes first, the peptide text is derived from it. Bridges are numbered along the chain shown (N, C = ends). [ ]: non-standard residue; d: D form. X1 = CC(=O)NC(C(=O)OC(C(C)C)C(N[*:1])C(=O)[*:2])C(O)C(C)C; PhLac = O=C(O)[CH](O)Cc1ccccc1; NMeT = CN[CH](C(=O)O)[CH](C)O; NMeA = CN[CH](C)C(=O)O; NMeDha = C=C(NC)C(=O)O

Tests used:
MRGPRX4 (S83) = target: T1, MRGPRX4 (S83) (Homo sapiens, UniProt Q96LA9, L83S); test: EC50 determination, intracellular calcium mobilization in MRGPRX4 stably expressed HEK293 cells (FLIPR Calcium 5, Flexstation-3); assay type: cell-based; parameters: Fig. 1D dose-response, calcium mobilization response (individual replicate) / calcium mobilization response (Fig. 1D dose-response raw data): unit not given here; settings: for Fig. 1D dose-response, calcium response at Concentration (M): propofol series, individual replicate values; for Hill coefficient: dose-response curve fitting, table S1
T1 construct: expressed in transfected cells
Protocol: HEK293 cells and MRGPRX4 stably expressed HEK293 cells were seeded in 100 μl culture media on 96-well plates at a density of 40,000 cells per well and incubated overnight. The next day, the media were replaced with a dye-loading solution from the FLIPR Calcium 5 assay kit (Molecular Devices), diluted in Hank's Balanced Salt Solution (HBSS) with 20 mM HEPES, pH 7.4. After 1 h of incubation at 37°C, cells were allowed to recover for 10 min in the dark at room temperature prior to performing intracellular calcium mobilization assay in a Flexstation-3 instrument with SoftMax®Pro 7.1 software (Molecular Devices). Serial concentrations of tested drugs were prepared in HBSS/HEPES solution at 3X concentration. […] Compounds were tested in triplicates and the signals were averaged. Responses were determined by subtracting the minimum signal (at the baseline before adding the drug) from the maximum signal (obtained after drug stimulation). Four-parameter logistic (4PL) curve fit was used to plot the dose-response curves. […] Both dose-response curve fitting and EC50s calculation are computed with GraphPad Prism software (version: 6.o or above).

[1] = tested on: MRGPRX4-expressing HEK293 cells (Gαq signaling pathway); test: Pharmacological blocker experiments: phospho-drug evoked calcium response in MRGPRX4-expressing HEK293 cells after inhibitor preincubation; settings: 30 min preincubation; 10 µM YM 254890, 20 µM U73122, 10 µM thapsigargin; stimulated with fospropofol, fosphenytoin or dexamethasone phosphate
Protocol: Various HEK293 cell lines were plated on PDL-coated glass coverslips. […] For pharmacological blocker experiments, cells were pre-incubated with signaling pathway inhibitors, including YM254890, U73122, and thapsigargin, for 30 min before imaging.
Traces of [Ca2+] from MRGPRX4-expressing HEK293 cells stimulated with (A) 1 µM
U73122 (middle), or 10 µM sarco/endoplasmic reticulum Ca2+-ATPase inhibitor thapsigargin
(right) for 30 min before imaging.
independent experiments, each performed in quadruplicate.

T1 sequence (Q96LA9 whole entry L83S): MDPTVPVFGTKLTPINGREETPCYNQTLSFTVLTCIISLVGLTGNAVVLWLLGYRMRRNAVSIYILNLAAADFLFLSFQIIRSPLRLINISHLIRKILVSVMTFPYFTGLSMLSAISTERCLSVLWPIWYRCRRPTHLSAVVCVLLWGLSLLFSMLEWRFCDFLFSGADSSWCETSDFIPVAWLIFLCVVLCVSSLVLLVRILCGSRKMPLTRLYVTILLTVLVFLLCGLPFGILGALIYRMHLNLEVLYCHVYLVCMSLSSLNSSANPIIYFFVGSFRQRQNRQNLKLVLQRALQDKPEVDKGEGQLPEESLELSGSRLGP

For `CC(C)c1cccc(C(C)C)c1O[C@@H]1O[C@H](C(=O)O)[C@@H](O)[C@H](O)[C@H]1O` [Propofol b-D-glucuronide], the “Fig. 1D dose-response, calcium response at Concentration (M)” value (shortened to “Fig. 1D dose-response, calcium response”) (MRGPRX4 (S83); 9.76563e-7 M) was 33.404 and 17.610 and 15.299 and 5.092 and 25.748 and 35.472 and 37.279 and 14.971 and 14.062, the “Fig. 1D dose-response, calcium response” value (MRGPRX4 (S83); 1.95313e-6 M) was 24.553 and 28.290 and 26.471 and 25.162 and 11.839 and 42.312 and 38.770 and 25.122 and 15.422 and the “Fig. 1D dose-response, calcium response” value (MRGPRX4 (S83); 3.90625e-6 M) was -0.931 and -0.509 and -0.147 and -0.531 and -0.497 and -0.558 and -1.252 and -0.171 and -0.163. For the same compound, the “Fig. 1D dose-response, calcium response” value (MRGPRX4 (S83); 7.8125e-6 M) was -3.944 and -3.544 and -1.450 and -3.087 and -3.091 and -2.761 and -3.250 and -1.367 and -4.322, the “Fig. 1D dose-response, calcium response” value (MRGPRX4 (S83); 1.5625e-5 M) was -14.193 and -2.564 and -12.325 and -15.196 and -3.788 and -10.098 and -11.561 and -10.981 and -6.540 and the “Fig. 1D dose-response, calcium response” value (MRGPRX4 (S83); 3.125e-5 M) was -0.025 and -0.623 and -1.002 and -0.534 and -0.882 and -0.234 and -0.728 and -0.769 and -0.154. The “Fig. 1D dose-response, calcium response” value (MRGPRX4 (S83); 6.25e-5 M) was -11.462 and -7.089 and -18.181 and -19.274 and -11.464 and -5.994 and -9.636 and -15.344 and -11.752, the “Fig. 1D dose-response, calcium response” value (MRGPRX4 (S83); 0.00025 M) was -8.452 and -1.759 and -25.311 and -28.879 and -1.342 and -5.301 and -7.817 and -14.781 and -12.923 and the “Fig. 1D dose-response, calcium response” value (MRGPRX4 (S83); 0.0005 M) was -2.705 and -17.232 and -3.163 and -5.843 and -6.495 and -10.762 and -7.609 and -4.103 and -11.388. For the same compound, the “Fig. 1D dose-response, calcium response” value (MRGPRX4 (S83); 0.001 M) was -9.560 and -7.574 and -9.738 and -14.721 and -4.551 and -7.600 and -11.650 and -7.050 and -8.173.

For `Cn1nnc(-c2ccc(-c3ccc(N4C[C@H](COP(=O)(O)O)OC4=O)cc3F)cn2)n1` [Tedizolid phosphate], the EC50 (MRGPRX4 (S83); MRGPRX4 stably expressed HEK293 cells, calcium mobilization, read-out: EC50) was 157 nM and the Hill coefficient (MRGPRX4 (S83)) was 1.352.

`COc1ccc2c(c1)CC[C@@H]1[C@@H]2CC[C@]2(C)[C@@H](NCCCCCCN3C(=O)C=CC3=O)CC[C@@H]12` [U73122] was tested, and the “Effect of inhibitor on phospho-drug evoked calcium response” value [1] was “abolished the calcium response”.

In the case of `C=C1C(=O)NC(C)C(=O)N(C)C(C)C(=O)NC(C(OC(=O)C(NC(C)=O)C(O)C(C)C)C(C)C)C(=O)N(C)C(C(C)OC)C(=O)OC(C)C(NC(C)=O)C(=O)OC(Cc2ccccc2)C(=O)N1C` (centres unmarked) [YM-254890] (Ac-T[PhLac][NMeDha]A[NMeA][X1][NMeT](Me); ester 1-C; configuration not given here), the “Effect of inhibitor on phospho-drug evoked calcium response” value [1] is reported as “abolished the calcium response”.

In the case of `C/C=C(/C)C(=O)O[C@H]1C(C)=C2[C@H]([C@@H]1OC(=O)CCCCCCC)[C@@](C)(OC(C)=O)C[C@H](OC(=O)CCC)[C@@]1(O)[C@H]2OC(=O)[C@@]1(C)O` [thapsigargin], the “Effect of inhibitor on phospho-drug evoked calcium response” value [1] is reported as “abolished the calcium response”.

For Dexamethasone palmitate, the “Fig. 1D dose-response, calcium mobilization response (individual replicate)” value (MRGPRX4 (S83); Concentration 9.76563e-7 M) was -18.225 and -22.739 and -7.984 and -16.162 and -15.021 and -13.070 and 2.408 and -2.265 and -6.745, the “Fig. 1D dose-response, calcium mobilization response (individual replicate)” value (MRGPRX4 (S83); Concentration 1.95313e-6 M) was -6.511 and -7.350 and 3.472 and -4.164 and -15.203 and -5.200 and 2.167 and -2.706 and -6.484 and the “Fig. 1D dose-response, calcium mobilization response (individual replicate)” value (MRGPRX4 (S83); Concentration 3.90625e-6 M) was -3.747 and 10.479 and -10.773 and -3.912 and -11.558 and -2.335 and 1.476 and 2.520 and -1.305. The “Fig. 1D dose-response, calcium mobilization response (individual replicate)” value (MRGPRX4 (S83); Concentration 7.8125e-6 M) was -30.862 and -16.831 and -16.502 and -2.263 and -11.827 and -17.176 and -5.630 and 3.868 and -9.469, the “Fig. 1D dose-response, calcium mobilization response (individual replicate)” value (MRGPRX4 (S83); Concentration 1.5625e-5 M) was -23.657 and 30.652 and -26.797 and 1.282 and -0.449 and -0.613 and 8.674 and 6.385 and -0.252 and the “Fig. 1D dose-response, calcium mobilization response (individual replicate)” value (MRGPRX4 (S83); Concentration 3.125e-5 M) was 88.602 and 69.392 and 95.399 and 41.739 and 60.580 and 65.413 and 42.682 and 17.645 and 71.002. The “Fig. 1D dose-response, calcium mobilization response (individual replicate)” value (MRGPRX4 (S83); Concentration 6.25e-5 M) was 155.837 and 167.386 and 158.681 and 72.199 and 72.835 and 105.522 and 59.878 and 78.793 and 128.090, the “Fig. 1D dose-response, calcium mobilization response (individual replicate)” value (MRGPRX4 (S83); Concentration 0.00025 M) was 281.902 and 277.911 and 231.255 and 145.042 and 106.318 and 115.112 and 141.417 and 113.731 and 129.258 and the “Fig. 1D dose-response, calcium mobilization response (individual replicate)” value (MRGPRX4 (S83); Concentration 0.0005 M) was 346.180 and 361.547 and 346.996 and 139.147 and 134.114 and 120.302 and 148.855 and 141.620 and 226.966. The “Fig. 1D dose-response, calcium mobilization response (individual replicate)” value (MRGPRX4 (S83); Concentration 0.001 M) was 354.688 and 329.354 and 273.082 and 127.830 and 137.045 and 134.530 and 140.483 and 130.182 and 155.284 and the Hill coefficient (MRGPRX4 (S83)) was 1.502.
